# Test results as given in patent publication US5428029A, “Vitamin D3 fluorinated analogs” (Hoffmann-La Roche Inc., priority 1993, dated 1995).
# Where two headings read alike, the source gives them in different places.
# How the values were obtained:
# [1] = test system: T47-D cells; test: Tetrazolium based MTT assay, inhibition of cell growth, T47-D; settings: Homo sapiens, T47D
# Method: (§1) TETRAZOLIUM BASED MTT ASSAY
# T47-D (breast ductal carcinoma) were grown in RPMI-1640 medium supplemented with 10 μg/ml bovine insulin and 10% fetal bovine serum (FBS).
# (§2) Cells were grown in appropriate medium to late log phase (about 80% confluency). T47-D or MCF-7 cells were then trypsinized and seeded at 4,000 or 2,000 cells/well, respectively.
# (§3) Tetrazolium Based MTT Assay:
# (§4) At 24 hours post seeding, serial dilutions of ethanol-solubilized drugs are prepared in the same medium and added to triplicate wells at a final concentration of 1,000 to 0.1 nM and 0.1% ethanol. On days 3 to 7 post drug addition, 50 μl of a 5 mg/ml MTT solution (3-(4,5-dimethylthiazol-2-yl)-2,5-diphenyl tetrazolium bromide in phosphate-buffered saline) is added to each well and incubation is continued at 37° C. for 2.5 hours. The plates are then spun briefly by centrifugation at 800 xg for 5 minutes, medium is aspirated from wells, and 50 μl ETOH/well is added to dissolve the formazan formed during the incubation period with MTT. After a 15 minute shaking, the optical density is determined for each well in an automatic plate reader at 570 and 660 nm. Percent inhibition of cell growth is calculated by comparing optical densities of cells treated with test compounds to those of cells treated only with 0.1% ethanol. IC50 values are determined based on the Reed and Muench formula (Am. J. Hyg. 27:493-497 1938) and the results of two independent experiments are presented below: […]
# [2] = test system: MCF-7 cells; test: Tetrazolium based MTT assay, inhibition of cell growth, MCF-7; settings: Homo sapiens, MCF7, Exp. 2
# Method: as §1
# MCF-7 (breast adenocarcinoma) were grown in MEM (Eagle) supplemented with non-essential amino acids, 1 mM sodium pyruvate, […] bovine insulin and 10% FBS
# as §2, §3, §4
# [3] = test system: human neonatal keratinocytes; test: Human Keratinocyte Antiproliferative Assay; assay type: cell-based; settings: for IC50: read-out: average ED50 (Dose that would obtain 50% of the number of cells as compared to the control)
# Method: Human Keratinocyte Antiproliferative Assay
# Cultures were obtained from neonatal foreskin epithelial keratinocytes using standard procedures.
# Human neonatal foreskins were collected by circumcision and placed into tubes containing Dulbecco's minimum essential Media (DMEM) with 10% serum. Upon arrival at the laboratory, they were mechanically trimmed of excess dermis, and treated with a solution of trypsin/ethylenediamine tetraacetic acid (EDTA) (0.05%/0.02%) at 4° C. overnight. The epidermis was stripped from the dermis, agitated in buffered saline to remove basal keratinocytes and the stratum corneum later removed. […] The cultures are incubated in humidified chambers with 5% CO2 at 37° C. with refeeding fresh media 2 to 3 times per week.
# Antiproliferation Assay Protocol:
# Approximately twenty-four hours after passage, the cells were refed with fresh KGM media supplemented to 1.5 mM CaCl2 that contains test compound or vehicle. Solutions of test compounds were prepared as follows: 1 milligram quantities were received in amber glass vials and stored at -20° C. Sufficient 100% ethanol was added directly to vials to obtain a millimolar solution that was subsequently aliquoted into small amber vials, overlayed with argon gas and stored at -20° C. Each stock solution was thawed once, used and discarded. Stock solutions were used within 4 to 6 weeks. Aliquots from the stock solution were diluted directly into medium and then serially diluted from micromolar to picomolar concentrations. […] Control wells are supplemented with vehicle alone at the highest concentration such as 0.1% ethanol. At the termination of the experiment prior to the cultures reaching confluency, the cells were enumerated by the following procedure. Dishes were washed with phosphate buffered saline, and then incubated with trypsin/EDTA solution for 30 minutes. Cells were suspended and an aliquot placed into isotonic buffered saline and counted on an electronic particle counter (Coulter Counter). The counter was periodically calibrated for the correct size of keratinocytes. Each well was counted in triplicate.
# [4] = test system: HL-60 tumor cell line; test: HL-60 Differentiation Assay; assay type: cell-based, human; settings: 4 days; for EC50: Homo sapiens, 96 h, HL-60 differentiation, read-out: Approximate ED50
# Method: HL-60 Differentiation Assay:
# The HL-60 tumor cell line was originally derived from a patient with promyleocytic leukemia and purchased from American Type Culture Collection (ATCC CCL240). […] For experimentation, cells were seeded at 0.9×10^6 cells per 25 cm^2 flask in medium supplemented with 0.25 mM sodium ascorbate. […] All compounds were handled in the following manner. Stock solutions were made of 10^-3 M solutions in ethanol and stored in amber vials overlaid with argon at -20° C. Stock solutions were diluted into medium at concentrations indicated. All flasks were supplemented with vehicle at a concentration of 0.1% ethanol. Control flasks were supplemented with vehicle alone at a concentration of 0.1% ethanol. Flasks were incubated upright for 4 days in 5% CO 2 at 37° C. On day 4, a 1 ml aliquot of cells was removed from the flasks, centrifuged for about 10 minutes, the media removed and the cells resuspended in a 0.2 ml of solution of nitroblue tetrazolium/phorbol 12 myristate 13-acetate (NBT/TPA) in media prepared on the day of enumeration as follows. Nitroblue tetrazolium was dissolved in media at 1 mg/ml. To this solution was added TPA to a final concentration of 100 ng/ml. This solution was kept in a covered vial on ice. The cells were suspended and incubated at 37° C. for 30 min. prior to transferring to ice. An aliquot was removed and the cells are counted using a hemocytometer. Cells without pigmented granules are judged to be undifferentiated while those containing blue black formazan (indicating conversion of NBT) granules were scored as differentiated. Results are expressed as percent differentiated cells by calculating the ratio of the number of dark cells per total number of cells counted.
# [5] = test system: sebaceous cells; test: Inhibition of proliferation of sebaceous cells in vitro; assay type: cell-based; settings: Homo sapiens, read-out: ED50 (amount of compound necessary to inhibit the proliferation of the sebaceous cells by 50%)
# Method: Sebaceous cells were isolated from adult human sebaceous glands, derived from facial skin removed during cosmetic surgery. This method is described in an article by Doran et al. in J. Invest. Dermatol. 96:341-348 (1991).
# The cells were cultured in Iscove's medium containing 10% fetal calf serum and 4 μg/ml dexamethasone on a layer of growth-arrested 3T3 mouse fibroblasts.
# Cells were plated in medium without the test compound and then given the compound in fresh medium 24-48 hours after the initial plating. The cultures were given fresh medium, containing the test compound, every 48 hours. On the day of harvesting, the cultures were rinsed with 0.03% ethylenediamine tetraacetic acid (EDTA) in phosphate buffered saline (PBS), to remove only the 3T3 fibroblasts. The remaining sebocyte colonies were incubated in 0.05% trypsin/0.03% EDTA to create a single cell suspension of sebocytes. The cells were diluted, mixed vigorously to maintain a single cell suspension, and counted in a hemocytometer.
# All compounds were handled in the following manner. Stock solutions were made up as 10^-2 M solutions in degassed 100% ethanol and stored at -20° C. in the dark. Solutions were never used after storage of more than a month. During experimental use the solutions, which had been aliquoted, were thawed once and used by diluting directly into complete medium to the appropriate concentration. […]
# [6] = Homo sapiens, Keratinocyte, read-out: % of Control
IC50 [2],SMILES,IC50 ([1]; Exp. 1),IC50 ([1]; Exp. 2),Avg Cell No. ([3]; Dose 10 nM),Avg Cell No. ([3]; Dose 100 nM),Avg Cell No. ([3]; Dose 1000 nM),Percent Positive Cells ([4]; Dose 0.1 nM),Percent Positive Cells ([4]; Dose 0.3 nM),Percent Positive Cells ([4]; Dose 1.0 nM),Percent Positive Cells ([4]; Dose 10.0 nM),Percent Positive Cells ([4]; Dose 100.0 nM),EC50 [4],also measured
0.05 nM,"C=C1/C(=C\C=C2/CCC[C@]3(C)C([C@H](C)C/C=C/C(O)(C(F)(F)F)C(F)(F)F)=CC[C@@H]23)C[C@@H](O)C[C@@H]1O [1,25-Dihydroxy-16,23E-diene-26,27-hexafluorocholecalciferol]",< 0.1 nM,0.9 nM,2.29E+05,2.03E+05,3.04E+05,6.0%,30.5%,63.0%,79.0%,89.5%,~0.6 nM,"Avg Cell No. ([3]; Dose 0.0001 nM): 4.57E+05; Avg Cell No. ([3]; Dose 0.001 nM): 4.41E+05; Avg Cell No. ([3]; Dose 0.01 nM): 5.42E+05; Avg Cell No. ([3]; Dose 0.1 nM): 5.03E+05; Avg Cell No. ([3]; Dose 1.0 nM): 2.87E+05; activity at 100 fM ([3]; Homo sapiens, Keratinocyte, Dose 0.0001 nM, read-out: % of Control): 93.7%; activity at 1 pM ([3]; Homo sapiens, Keratinocyte, Dose 0.001 nM, read-out: % of Control): 90.3%; activity at 10 pM ([3]; Homo sapiens, Keratinocyte, Dose 0.01 nM, read-out: % of Control): 111%; activity at 0.0001 µM ([3]; Homo sapiens, Keratinocyte, Dose 0.1 nM, read-out: % of Control): 103%; activity at 0.001 µM ([3]; Homo sapiens, Keratinocyte, Dose 1.0 nM, read-out: % of Control): 58.7%; activity at 0.01 µM ([3]; Homo sapiens, Keratinocyte, Dose 10 nM, read-out: % of Control): 47%; activity at 0.1 µM ([3]; Homo sapiens, Keratinocyte, Dose 100 nM, read-out: % of Control): 41.6%; activity at 1 µM ([3]; Homo sapiens, Keratinocyte, Dose 1000 nM, read-out: % of Control): 6.23%; IC50 ([3]; Keratinocyte, human keratinocytes): 2 nM; IC50 ([5]; compared to vehicle treated control culture): < 1 nM"
0.42 nM,"C=C1/C(=C\C=C2/CCC[C@]3(C)C([C@H](C)CC#CC(O)(C(F)(F)F)C(F)(F)F)=CC[C@@H]23)C[C@@H](O)C[C@@H]1O [1,25-dihydroxy-16-ene-23 yne-26,27-hexafluoro-cholecalciferol, reference compound]",0.63 nM,0.95 nM,–,–,–,–,–,–,–,–,–,–
0.15 nM,"C[C@H](C/C=C/C(O)(C(F)(F)F)C(F)(F)F)C1=CC[C@H]2/C(=C/C=C3C[C@@H](O)C[C@H](O)C3)CCC[C@]12C [1,25-Dihydroxy-16,23E-diene-26,27-hexafluoro-19-norcholecalciferol]",0.26 nM,2.2 nM,–,–,–,–,–,–,–,–,–,–
0.38 nM,"C=C1/C(=C\C=C2/CCC[C@]3(C)C([C@H](C)C/C=C/C(O)(C(F)(F)F)C(F)(F)F)=CC[C@@H]23)C[C@@H](O)C[C@@H]1F [1α-Fluoro-25-hydroxy-16,23E-diene-26,27-hexafluorocholecalciferol]",–,–,–,–,–,–,–,–,–,–,–,–
–,"C=C1/C(=C\C=C2/CCC[C@]3(C)[C@@H]([C@H](C)CCCC(C)(C)O)CC[C@@H]23)C[C@@H](O)C[C@@H]1O [1,25-dihydroxy-cholecalciferol, 1,25-dihydroxycholecalciferol, reference compound]",–,–,4.60E+05,3.12E+05,7.19E+05,2.0%,5.0%,3.5%,26.0%,84.0%,~25 nM,"Avg Cell No. ([3]; Dose 30 nM): 3.90E+05; Avg Cell No. ([3]; Dose 300 nM): 2.51E+05; activity at 0.01 µM [3, 6]: 94.3%; activity at 0.03 µM [3, 6]: 79.9%; activity at 0.1 µM [3, 6]: 64%; activity at 0.3 µM [3, 6]: 51.4%; activity at 1 µM [3, 6]: 14.7%; IC50 ([3]; Homo sapiens, Keratinocyte): 300 nM; IC50 [5]: 50 nM"
